Source: ChEMBL document CHEMBL3817753, “Neurosteroid-like Inhibitors of N-Methyl-d-aspartate Receptor: Substituted 2-Sulfates and 2-Hemisuccinates of Perhydrophenanthrene” (J Med Chem, 2016)

Key:
[1] = target: Glutamate NMDA receptor; Grin1/Grin2b (Rattus norvegicus, UniProt P35439+Q00960); experiment: Inhibition of recombinant rat GluN1a/GluN2B co-expressed in HEK293 cells assessed as suppression of glutamate-induced current by patch-clamp method; assay type: cell-based
[2] = Inhibition of AMPAR in rat hippocampal neurons assessed as suppression of AMPA-induced current by whole-cell patch-clamp method; assay type: tissue-based; details: Hippocampus
[3] = target: Ionotropic glutamate receptor NMDA 1/2D (Rattus norvegicus, UniProt P35439+Q62645); experiment: Inhibition of recombinant rat GluN1a/GluN2D co-expressed in HEK293 cells assessed as suppression of glutamate-induced current by patch-clamp method; assay type: cell-based
Ionotropic glutamate receptor NMDA 1/2D, sequence (Q62645 whole entry, other chains not shown): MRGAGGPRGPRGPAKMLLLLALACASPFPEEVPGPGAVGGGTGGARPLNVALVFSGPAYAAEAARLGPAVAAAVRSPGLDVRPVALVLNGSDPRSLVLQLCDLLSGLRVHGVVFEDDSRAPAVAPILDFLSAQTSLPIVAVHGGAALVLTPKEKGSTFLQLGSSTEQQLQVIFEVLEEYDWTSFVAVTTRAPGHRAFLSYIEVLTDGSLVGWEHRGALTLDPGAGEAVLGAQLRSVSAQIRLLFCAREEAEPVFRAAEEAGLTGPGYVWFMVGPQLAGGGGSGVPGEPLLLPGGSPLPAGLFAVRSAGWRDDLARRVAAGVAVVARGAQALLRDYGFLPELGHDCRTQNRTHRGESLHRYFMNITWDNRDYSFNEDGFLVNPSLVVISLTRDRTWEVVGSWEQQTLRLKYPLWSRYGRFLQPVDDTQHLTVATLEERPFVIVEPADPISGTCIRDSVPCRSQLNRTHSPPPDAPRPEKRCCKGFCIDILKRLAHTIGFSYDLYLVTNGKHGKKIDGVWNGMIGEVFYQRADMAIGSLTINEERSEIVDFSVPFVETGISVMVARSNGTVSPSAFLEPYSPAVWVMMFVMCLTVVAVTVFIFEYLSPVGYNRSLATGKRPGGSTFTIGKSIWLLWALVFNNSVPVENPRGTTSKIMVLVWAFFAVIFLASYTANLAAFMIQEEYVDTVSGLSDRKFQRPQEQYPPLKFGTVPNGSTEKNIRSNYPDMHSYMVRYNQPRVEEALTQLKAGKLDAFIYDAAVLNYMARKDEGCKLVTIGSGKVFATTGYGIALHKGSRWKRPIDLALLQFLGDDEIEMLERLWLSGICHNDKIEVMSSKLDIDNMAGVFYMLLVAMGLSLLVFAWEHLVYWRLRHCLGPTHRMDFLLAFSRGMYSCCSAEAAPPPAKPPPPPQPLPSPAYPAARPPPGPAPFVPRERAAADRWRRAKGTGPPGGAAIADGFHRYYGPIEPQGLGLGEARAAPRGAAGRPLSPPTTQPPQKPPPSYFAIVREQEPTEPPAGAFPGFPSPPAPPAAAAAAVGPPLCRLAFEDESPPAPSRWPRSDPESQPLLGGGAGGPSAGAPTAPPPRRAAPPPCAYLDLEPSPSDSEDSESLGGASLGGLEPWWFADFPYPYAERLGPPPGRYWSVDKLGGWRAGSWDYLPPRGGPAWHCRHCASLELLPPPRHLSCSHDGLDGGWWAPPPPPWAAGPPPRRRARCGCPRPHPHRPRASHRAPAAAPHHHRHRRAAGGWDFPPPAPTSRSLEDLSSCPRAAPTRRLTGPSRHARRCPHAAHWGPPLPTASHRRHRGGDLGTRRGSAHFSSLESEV

[4] = target: Glutamate NMDA receptor; Grin1/Grin2c (Rattus norvegicus, UniProt P35439+Q00961); experiment: Inhibition of recombinant rat GluN1a/GluN2C co-expressed in HEK293 cells assessed as suppression of glutamate-induced current by patch-clamp method; assay type: cell-based
Glutamate NMDA receptor; Grin1/Grin2c, sequence (Q00961 whole entry, other chains not shown): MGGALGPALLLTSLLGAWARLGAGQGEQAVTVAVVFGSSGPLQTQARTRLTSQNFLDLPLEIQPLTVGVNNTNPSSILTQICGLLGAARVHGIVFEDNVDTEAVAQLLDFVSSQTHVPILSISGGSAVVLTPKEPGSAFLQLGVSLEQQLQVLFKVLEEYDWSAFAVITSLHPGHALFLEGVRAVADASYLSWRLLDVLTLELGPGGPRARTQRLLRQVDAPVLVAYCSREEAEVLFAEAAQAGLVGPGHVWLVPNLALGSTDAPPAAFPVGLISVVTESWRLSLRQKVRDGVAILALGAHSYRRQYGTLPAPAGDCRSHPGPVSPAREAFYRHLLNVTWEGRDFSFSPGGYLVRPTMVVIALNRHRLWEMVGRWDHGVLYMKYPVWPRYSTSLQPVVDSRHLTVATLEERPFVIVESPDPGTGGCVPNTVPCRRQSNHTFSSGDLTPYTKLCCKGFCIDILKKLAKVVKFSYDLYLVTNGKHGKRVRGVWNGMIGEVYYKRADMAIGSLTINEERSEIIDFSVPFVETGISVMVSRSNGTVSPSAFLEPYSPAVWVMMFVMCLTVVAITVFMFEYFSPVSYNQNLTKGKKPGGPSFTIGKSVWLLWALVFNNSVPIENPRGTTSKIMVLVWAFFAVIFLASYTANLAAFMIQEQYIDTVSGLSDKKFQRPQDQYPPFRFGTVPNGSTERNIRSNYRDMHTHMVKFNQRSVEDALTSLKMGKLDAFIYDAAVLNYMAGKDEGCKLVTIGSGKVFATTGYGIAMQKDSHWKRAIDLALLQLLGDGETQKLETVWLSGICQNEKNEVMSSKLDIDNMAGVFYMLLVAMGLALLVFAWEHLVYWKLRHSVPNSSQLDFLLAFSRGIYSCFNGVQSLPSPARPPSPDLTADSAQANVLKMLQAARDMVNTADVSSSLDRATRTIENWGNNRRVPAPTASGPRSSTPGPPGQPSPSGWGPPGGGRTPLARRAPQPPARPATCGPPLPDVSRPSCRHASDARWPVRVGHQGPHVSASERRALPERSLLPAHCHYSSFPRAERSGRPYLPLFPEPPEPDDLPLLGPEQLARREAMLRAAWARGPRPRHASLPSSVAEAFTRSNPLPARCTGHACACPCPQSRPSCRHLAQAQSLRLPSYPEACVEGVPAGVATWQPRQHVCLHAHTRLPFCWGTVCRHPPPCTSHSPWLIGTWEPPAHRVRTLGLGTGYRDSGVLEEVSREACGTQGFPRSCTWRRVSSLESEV

[5] = target: Glutamate NMDA receptor; Grin1/Grin2a (Rattus norvegicus, UniProt P35439+Q00959); experiment: Inhibition of recombinant rat GluN1a/GluN2A co-expressed in HEK293 cells assessed as suppression of glutamate-induced current by patch-clamp method; assay type: cell-based
[6] = Inhibition of GABAR in rat hippocampal neurons assessed as suppression of GABA-induced current by whole-cell patch-clamp method; assay type: tissue-based; details: Hippocampus
[7] = Inhibition of NMDAR in rat hippocampal neurons assessed as suppression of NMDA-induced current by whole-cell patch-clamp method; assay type: tissue-based; details: Hippocampus

Glutamate NMDA receptor; Grin1/Grin2b, sequence (Q00960 whole entry, other chains not shown): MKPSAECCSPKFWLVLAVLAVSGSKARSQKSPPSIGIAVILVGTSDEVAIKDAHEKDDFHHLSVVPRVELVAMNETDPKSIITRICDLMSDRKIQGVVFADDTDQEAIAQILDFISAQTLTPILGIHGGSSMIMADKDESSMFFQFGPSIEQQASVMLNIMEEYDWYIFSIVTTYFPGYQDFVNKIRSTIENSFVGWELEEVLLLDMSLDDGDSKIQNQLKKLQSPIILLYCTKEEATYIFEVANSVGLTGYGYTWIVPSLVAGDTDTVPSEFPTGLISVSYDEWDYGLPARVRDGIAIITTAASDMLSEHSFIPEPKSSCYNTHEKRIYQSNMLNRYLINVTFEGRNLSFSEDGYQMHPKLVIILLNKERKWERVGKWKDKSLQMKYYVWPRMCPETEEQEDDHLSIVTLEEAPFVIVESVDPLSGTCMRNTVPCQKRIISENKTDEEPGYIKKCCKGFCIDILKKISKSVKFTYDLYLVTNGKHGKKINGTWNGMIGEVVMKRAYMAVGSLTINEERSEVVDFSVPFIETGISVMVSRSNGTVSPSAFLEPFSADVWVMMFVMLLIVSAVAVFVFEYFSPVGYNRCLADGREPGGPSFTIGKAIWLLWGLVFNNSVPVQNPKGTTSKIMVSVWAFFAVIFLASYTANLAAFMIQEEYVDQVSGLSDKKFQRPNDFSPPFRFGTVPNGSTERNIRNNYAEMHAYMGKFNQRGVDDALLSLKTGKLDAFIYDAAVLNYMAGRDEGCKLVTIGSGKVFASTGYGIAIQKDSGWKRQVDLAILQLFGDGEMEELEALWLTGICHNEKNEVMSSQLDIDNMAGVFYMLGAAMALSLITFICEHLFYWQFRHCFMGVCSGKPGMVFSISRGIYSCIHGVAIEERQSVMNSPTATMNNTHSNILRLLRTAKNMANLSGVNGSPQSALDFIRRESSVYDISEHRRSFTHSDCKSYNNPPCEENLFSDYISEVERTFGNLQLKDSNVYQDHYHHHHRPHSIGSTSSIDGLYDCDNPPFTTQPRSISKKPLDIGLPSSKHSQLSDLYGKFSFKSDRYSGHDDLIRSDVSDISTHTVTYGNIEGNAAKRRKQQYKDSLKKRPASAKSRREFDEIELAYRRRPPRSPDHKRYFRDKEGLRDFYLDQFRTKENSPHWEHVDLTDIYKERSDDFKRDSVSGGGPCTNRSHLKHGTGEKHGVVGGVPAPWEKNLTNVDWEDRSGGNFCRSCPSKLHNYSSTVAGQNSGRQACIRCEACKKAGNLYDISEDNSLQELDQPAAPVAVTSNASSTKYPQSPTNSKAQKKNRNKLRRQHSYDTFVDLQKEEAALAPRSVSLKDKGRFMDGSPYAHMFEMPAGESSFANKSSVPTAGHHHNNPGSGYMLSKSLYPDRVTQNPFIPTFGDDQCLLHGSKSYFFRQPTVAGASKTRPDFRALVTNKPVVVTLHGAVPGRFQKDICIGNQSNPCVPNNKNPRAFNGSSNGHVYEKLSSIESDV

Compound | IC50 [1] | also measured
COC[C@@]1(C)CC[C@H]2[C@@H](CC[C@@H]3C[C@H](OC(=O)CCC(=O)O)CC[C@@]32C)[C@@H]1C | 29.2 µM | 
COC(=O)[C@@]1(C)CC[C@H]2[C@@H](CC[C@@H]3C[C@H](OS(=O)(=O)O)CC[C@@]32C)[C@@H]1C.c1ccncc1 | 74.6 µM | 
COC[C@@]1(C)CC[C@H]2[C@@H](CC[C@@H]3C[C@H](OS(=O)(=O)O)CC[C@@]32C)C1.c1ccncc1 | 77 µM | 
C[C@@H]1CC[C@H]2[C@@H](CC[C@@H]3C[C@H](OS(=O)(=O)O)CC[C@@]32C)C1.c1ccncc1 | 15.6 µM | IC50 [2]: 83 µM; IC50 [3]: 8.1 µM; IC50 [4]: 11.1 µM; IC50 [5]: 10.9 µM; IC50 [6]: 3.1 µM; IC50 [7]: 13.7 µM
COC(=O)[C@@]1(C)CC[C@H]2[C@@H](CC[C@@H]3C[C@H](OC(=O)CCC(=O)O)CC[C@@]32C)[C@@H]1C | 63.4 µM | 

The next lines start with results.

IC50 [1] | Compound | also measured
33.3 µM | COC[C@@]1(C)CC[C@H]2[C@@H](CC[C@@H]3C[C@H](OC(=O)CCC(=O)O)CC[C@@]32C)C1 | 
87.6 µM | COC(=O)[C@@]1(C)CC[C@H]2[C@@H](CC[C@@H]3C[C@H](OC(=O)CCC(=O)O)CC[C@@]32C)C1 | 
